Results on 5 compounds are retold here after patent publication US7625583B2, “Dietary lipids for improving skin and coat of pets” (Nestec S.A., priority 2000, dated 2009).

Values after ≈ are worked out from the molar mass of the structure shown.

One experiment deals with Staphylococcus aureus. Description: Colorimetric AlamarBlue microtiterplate MIC determination of fatty acids. In kind it is cell-based. Particulars: four S. aureus strains, 24 h at 30° C. The source says:
(§1) A colorimetric method for quantitative measurement of the susceptibility of Staphylococcus aureus, Staphylococcus intermedius and Malassezia pachydermatis strains to fatty acids was developed. This method is based on the assays described by Hogan, J. S., et al, 1987, J. Dairy, Sci., 70, 927-934 and Tiballi, R. N., et al., 1995, J. Clin. Microbiol., 33 (4), 915-917.
(§2) The microorganisms used in this study were Staphylococcus aureus FSM 51, 52, 84 (food isolates), ATCC 6538, Staphylococcus intermedius BCCM™/LMG 9079, 13351 and Malassezia pachidermatis ATCC 14522. Staphylococcus strains were grown in Lab-Lemco broth (LL broth, Oxoid CM 15) for 18-20 h at 30° C. and Malassezia was cultivated for 5 days at 30° C. in liquid Dixon medium (30 g Malt extract, 20 g Oxbile, 15 g Agar, 5 g Mycological peptone, 2.5 g Glycerol mono-oleate, 10 ml Tween™ 40, pH=5.4±0.2). After washing in saline (Oxoid, BR53), cell pellets were resuspended in LL broth supplemented with 0.15% agar (w/v).
(§3) Minimal inhibitory concentrations (MICs) of palmitoleic, lauric and oleic acids (NU-CHECK-PREP, Inc, DK, U-40-A, N-12-A, U-46-A respectively) were investigated in a microtiterplate assay using an oxidation-reduction dye, AlamarBlue™ (Interchim, Fr), as an indicator of growth. Each plate was set up with each of the test microorganisms as follows: one column, 110 μl of sterile LL broth supplemented with 0.15% agar (negative control), one column, 100 μl of sterile LL broth supplemented with 0.15% agar plus 10 μl of test microorganism (positive control), other columns, 100 μl of serial two fold dilutions of the test fatty acids (diluted in LL broth supplemented with 0.15% agar) plus 10 μl of microorganism (final concentration of 10^3-10^4 cell/ml). Plates were incubated at 30° C. in ambient air and examined at 24 h and 4-5 days for Staphylococcus strains and Malassezia respectively. After incubation period, 25 μl of AlamarBlue™ solution (¼ diluted with 10 mM Phosphate Buffered Saline 0.05% Tween 20, Sigma P3563) were added to each well. After a second incubation of 2 h (Staphylococcus) and 1 day (Malassezia) at 30° C., endpoints were determined visually by observing a color change from blue (no growth) to pink (growth). MIC was defined as the lowest fatty acid concentration showing no growth (any color change).
Background: Resazurin is reduced to fluorescent resorufin, in cell work by metabolically active cells.

The next experiment relates to Malassezia pachydermatis. The description is as above. In kind it is cell-based. Particulars: one M. pachydermatis strain, 4-5 days at 30° C.
From the text: as §1, §2, §3

The test system of experiment [1] is Staphylococcus intermedius. Described as above. In kind it is cell-based. Particulars: two S. intermedius strains, 24 h at 30° C.
From the text: as §1, §2, §3

Experiment [2] relates to Pneumococci, Streptococcus, Corynebacteria, Micrococci, Candida, Staphylococcus aureus. Particulars: several skin pathogens; cited from earlier work.
For experiment [3] the following is noted: human trial, 600 mg/day for 24 weeks; cited from earlier work.

Consider `CCCCCCCC/C=C\CCCCCCCC(=O)O` [Oleic, oleic acid], for which the MIC range (against Staphylococcus aureus; with Malassezia pachydermatis; in experiment [1]) was more than 25 mg/mL in each case.
On to `CCCCCC/C=C\CCCCCCCC(=O)O` [Palmitoleic, palmitoleic acid], for which the MIC range in the experiment on Staphylococcus aureus is 0.02 mg/mL (≈ 78.6 µM); in experiment [1], 0.02 to 0.1 mg/mL. Moreover, in experiment [2], the “Inhibition of skin pathogens in vitro (in words)” value (from here on “Inhibition of skin pathogens”) is given as “inhibitory”.
`CCCCC/C=C\C/C=C\CCCCCCCC(=O)O` [linoleic acid]: the “Inhibition of skin pathogens” value in experiment [2] is “inhibitory”.
For the compound `CCCCCCCCCCCC(=O)O` [Lauric, lauric acid], the values for the MIC range (with Staphylococcus aureus; against Malassezia pachydermatis; in experiment [1]) were less than 0.2 to 0.4 mg/mL, less than 0.2 mg/mL and less than 0.2 to 0.8 mg/mL, respectively. Also, the “Inhibition of skin pathogens” value in experiment [2] is on record as “inhibitory”.
As for `CCCCC/C=C\C/C=C\C/C=C\CCCCC(=O)O` [γ-linolenic acid], in experiment [3], the “Improvement of hand dermatitis (in words)” value is listed as “did not improve hand dermatitis significantly”.
